Assay results as given in US20160326219A1, “OPTICALLY ACTIVATED RECEPTORS” (IST AUSTRIA (INSTITUTE OF SCIENCE AND TECHNOLOGY AUSTRIA), priority 2013, published 2016).
Like-named read-outs stand apart in the source and are kept apart here.

Legend:
[1] = target: T1, imFGFR1 (Mus musculus, UniProt P16092); experiment: Chemical stimulation of imFGFR1, MAPK luciferase reporter (HEK293 cells); assay type: cell-based, murine; conditions: 10 nM, FIG. 2b
T1 construct: a single or both FKBP domains were deleted to yield constructs miFGFR1 and miFGFR1-ΔFKBP; myristoylation domain (N); expressed in transfected cells; host or cells: HEK293
Description: (§1) Activation of the MAPK pathway was assayed with the PathDetect Elk1 trans-Reporting System (Agilent) consisting of an Elk1 phosphorylation-dependent trans-activator and a luciferase-based trans-reporter. Cells were transfected with 213.3 ng total DNA per well (receptor, trans-activator and trans-reporter at ratio of 1:3:60 or 1:30:600) using Lipofectamine 2000. Six h after transfection medium was replaced with CO2-independent reduced serum starve medium (Gibco/Life Technologies; supplemented with 0.5% FBS, 2 mM L-Glutamine, 100 U/ml penicilin and 0.1 mg/ml streptomycin) for 18 h at 37° C. Cells were transferred and were either kept under constant illumination for 8 h or were protected from light. Chemical stimulation of imFGFR1 followed the same procedure, except that 10 nM AP20187 ((Clackson 1998); ARIAD Pharmaceuticals, Cambridge, Mass.) were added before transfer to the stimulation incubator. After incubation, plates were washed once with PBS and luciferase was detected with standard, off-the-shelf reagents. These were either Luciferase 1000 Assay System (Promega, Mannheim, Germany) in combination with a microplate reader equipped with an injector (Tecan Infinite 200 Pro, Maennedorf, Switzerland), or ONE-Glo Assay System (Promega) in combination with a microplate reader not equipped with an injector (BioTek Synergy H1). These assay systems provide equivalent results.

[2] = tested on: MAPK pathway; experiment: All optical evaluation of pharmacological compounds, luciferase signals of HEK293 cells expressing redOpto-rtrkB; assay type: cell-based, human; conditions: red light ~0.05 μW/mm^2, UO 10 μM, SEL 0.5 μM, PD 5 μM, IMA 0.5 μM, VEM 0.5 μM
Description: Phycocyanobilin (PCB; Livchem Logistics GmbH, Frankfurt a.M., Germany) was dissolved in a dark room to a stock concentration of 10 mM in DMSO. Aliquots were stored in the dark at −20° C. Prior to experiments, cells were incubated with 50 μM PCB overnight in reduced serum starve medium at 37° C. PCB could also be applied to applied to living animals as it is non-toxic even in high doses (0.17% of diet or 10 mg/kg) (McCarty (2007).
as §1, with “Chemical stimulation of imFGFR1 followed the same procedure, except that 10 nM AP20187 ((Clackson 1998); ARIAD Pharmaceuticals, Cambridge, Mass.) were added before transfer to the stimulation incubator.” left out, “These assay systems provide equivalent results.” left out
For M38K cells, cell morphology was evaluated as described above but followed by automated image analysis. Phase contrast images (typically three images from two wells) were automatically analyzed. […] Cells were identified and measured in FIJI/ImageJ (Max Planck Society/National Institutes of Health; size limit: 40 to 600 pixel̂2, circularity limit: 0.01 to 1.00). […] For HEK293 cells, MAPK pathway activation was measured using luciferase as described above.

[3] = tested on: M38K cells; experiment: All optical evaluation of pharmacological compounds / cell morphology, M38K cells stably expressing Opto-mFGFR1; assay type: cell-based, human; conditions: for Abrogation of light-induced morphology changes of M38K cells: Opto-mFGFR1 activated by blue light ~3 μW/mm^2, PD 5 μM, BIBF 0.5 μM, PON 1 μM, SEL 0.5 μM, UO 10 μM, MK 10 μM, LY 20 μM, automated image analysis
Excerpt: M38K and SPC212, two malignant pleural mesothelioma cell lines, were maintained in RPMI1640 supplemented with 10% FBS. Telomerase-immortalized microvascular hBE cells were maintained in Clonetics EGM2 MV endothelial growth medium (Lonza, Wakersville, Md.) supplemented with 5% FBS. For retrovirus generation, Opto-mFGFR1 or mCherry as control was subcloned into pQCXIP (Clontech, Mountain View, Calif.) using EcoRI and NotI restriction enzymes. Viral particles were generated in HEK293 cells by co-transfection with the helper plasmids pVSV-G and p-gag-pol-gpt. Supernatants were used to transduce M38K, SPC212 or hBE cells grown to 50% confluency in 6-well plates. Cells were selected with 0.8 μg/ml puromycin for 10 d and transgene expression was verified by immunoblotting.
10^5 M38K cells were seeded in each well of 6-well plates. After 24 h, cells were stimulated for 1 h or kept in the dark. FGF2 (Sigma) or PD166866 (Pfizer Global Research and Development, New London, Conn.) were added as indicated. After additional 24 h, cells were photographed on the Nikon Ti300 microscope. For quantification of cell morphology, all cell perimeters in randomly selected sections of phase contrast images were traced and aspect ratios (defined as length of major axis divided by length of minor axis of a fitted ellipse) calculated with ImageJ software (National Institute of Health). Greater than 50 individual values contributed to each average.
For M38K cells, cell morphology was evaluated as described above but followed by automated image analysis. Phase contrast images (typically three images from two wells) were automatically analyzed. Images were converted to greyscale, resized and divided into segments for local threshold correction (threshold was defined as most probably intensity multiplied by a constant factor of 0.85; Igor Pro, Wavemetrics, Lake Oswego, Oreg.). Cells were identified and measured in FIJI/ImageJ (Max Planck Society/National Institutes of Health; size limit: 40 to 600 pixel̂2, circularity limit: 0.01 to 1.00). Occasionally, outliers were removed manually. Typically 200 to 1800 individual values contributed to the averages of FIG. 9. For HEK293 cells, MAPK pathway activation was measured using luciferase as described above.

[4] = high doses (0.17% of diet or 10 mg/kg), McCarty (2007); cited from earlier work
[5] = published half lives converted to lifetimes where necessary; cited from earlier work
[6] = target: LOV domains; conditions: cited from earlier work
[7] = tested on: luciferase reporter plasmid; experiment: Light-activated VfAU1-LOV transcription factor, luciferase reporter; assay type: cell-based; conditions: blue light ~3 μW/mm^2, FIG. 4b
Excerpt: The plasmid pGAVPO (Y. Yang, East China University of Science and Technology) contains a Gal4 DNA binding domain, NcVV-LOV and a transactivation domain (Wang et al. 2012) (FIG. 4b). Blue-light activation of pGAVPO was detected with the luciferase reporter plasmid applied in MAPK pathways assays (see above; this plasmid contains multiple UAS sequences). VfAU1-LOV was amplified by PCR and oligonucleotides 24 and 25 (SEQ ID NO: 38 and 39, respectively) and inserted in pGAVPO using BglII and EcoRI restriction enzymes. Constructs was verified by DNA sequencing. Luciferase activation experiments were performed as described above except that mFGFR1 plasmids were replaced with 50 ng pGAVPO per well.

[8] = dark state, read-out: Estimated KD, Dark
[9] = light state, read-out: Estimated KD, Light

T1 sequence (P16092 with tags, fused parts or gaps): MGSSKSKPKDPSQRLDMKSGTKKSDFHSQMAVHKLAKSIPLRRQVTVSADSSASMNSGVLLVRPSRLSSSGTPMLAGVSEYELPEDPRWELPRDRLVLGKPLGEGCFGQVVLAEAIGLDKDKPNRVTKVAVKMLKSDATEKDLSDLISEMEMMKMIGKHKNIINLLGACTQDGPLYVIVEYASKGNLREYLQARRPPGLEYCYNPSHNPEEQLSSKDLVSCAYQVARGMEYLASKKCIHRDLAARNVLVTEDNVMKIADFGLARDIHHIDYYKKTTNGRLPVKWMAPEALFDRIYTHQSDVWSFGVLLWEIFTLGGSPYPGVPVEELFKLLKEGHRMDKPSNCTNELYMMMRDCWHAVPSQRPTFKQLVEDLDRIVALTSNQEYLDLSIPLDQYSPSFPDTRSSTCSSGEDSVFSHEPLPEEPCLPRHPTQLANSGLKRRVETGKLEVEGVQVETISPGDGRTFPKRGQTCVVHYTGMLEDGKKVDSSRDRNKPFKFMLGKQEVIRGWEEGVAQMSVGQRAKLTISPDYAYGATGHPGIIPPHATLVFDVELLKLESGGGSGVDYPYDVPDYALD

## CC[C@H](C(=O)N1CCCC[C@H]1C(=O)O[C@H](CCc1ccc(OC)c(OC)c1)c1cccc(OCC(=O)NCC(CNC(=O)COc2cccc([C@@H](CCc3ccc(OC)c(OC)c3)OC(=O)[C@@H]3CCCCN3C(=O)[C@@H](CC)c3cc(OC)c(OC)c(OC)c3)c2)CN(C)C)c1)c1cc(OC)c(OC)c(OC)c1 [AP20187]
[1]
  Activation of imFGFR1 (MAPK pathway): activated

## COc1cc(OC)cc(-c2cc3cnc(N)nc3nc2NC(=O)NC(C)(C)C)c1 [PD166866]
[2]
  Abrogation of MAPK pathway induction in response to red light: not effective
[3]; M38K cells with Opto-mFGFR1, blue light, FIGS. 6e and f
  Light-induced changes in morphology after pre-treatment: inhibited
[3]
  Abrogation of light-induced morphology changes of M38K cells: abrogated

## Cc1ccc(NC(=O)c2ccc(CN3CCN(C)CC3)cc2)cc1Nc1nccc(-c2cccnc2)n1 [Imatinib]
[2]
  Abrogation of MAPK pathway induction in response to red light: not effective

## N#CC(=C(/N)Sc1ccccc1N)/C(C#N)=C(/N)Sc1ccccc1N [UO126]
[2]
  Abrogation of MAPK pathway induction in response to red light: abrogated
[3]
  Abrogation of light-induced morphology changes of M38K cells: abrogated

## Phycocyanobilin [PCB]
[4]
  Toxicity in living animals: non-toxic

## FGF2: a prominent FGFR ligand
[3]; M38K cells, blue light (Opto-mFGFR1) or added growth factor
  Cell morphology response: elongated morphology

## NC1(c2ccc(-c3nc4ccn5c(=O)[nH]nc5c4cc3-c3ccccc3)cc2)CCC1 [MK2206]
[3]
  Abrogation of light-induced morphology changes of M38K cells: not effective

B1: AtPH2-LOV2: LOV domain of A. thaliana phototropin 2, residue 363 to 500 of P93025, SEQ ID NO: 4 (protein, listed as Arabidopsis thaliana)
chain: DSWDLSDRERDIRQGIDLATTLERIEKNFVISDPRLPDNPIIFASDSFLELTEYSREEILGRNCRFLQGPETDQATVQKIRDAIRDQREITVQLINYTKSGKKFWNLFHLQPMRDQKGELQYFIGVQLDGSDHVEPLQ
[5]
  Estimated excited state lifetime: ~7 s
[6]; [8]
  Kd: < 25 µM
[6]; [9]
  Kd: < 25 µM

B2: AtPH1-LOV2: LOV domain of A. thaliana phototropin 1, residue 449 to 586 of O48963, SEQ ID NO: 2 (protein, listed as Arabidopsis thaliana)
chain: ESVDDKVRQKEMRKGIDLATTLERIEKNFVITDPRLPDNPIIFASDSFLELTEYSREEILGRNCRFLQGPETDLTTVKKIRNAIDNQTEVTVQLINYTKSGKKFWNIFHLQPMRDQKGEVQYFIGVQLDGSKHVEPVR
[5]
  Estimated excited state lifetime: ~40 s
[6]; [8]
  Kd: < 25 µM
[6]; [9]
  Kd: < 25 µM

B3: GA-VfAU1-LOV-P: VfAU1-LOV incorporated into pGAVPO transcription factor (Gal4 DNA binding domain, transactivation domain) (protein)
chain: MKLLSSIEQACDICRLKKLKCSKEKPKCAKCLKNNWECRYSPKTKRSPLTRAHLTEVESRLERLEPDYSLVKALQMAQQNFVITDASLPDNPIVYASRGFLTLTGYSLDQILGRNCRFLQGPETDPRAVDKIRNAITKGVDTSVCLLNYRQDGTTFWNLFFVAGLRDSKGNIVNYVGVQSKVSEDYAKLLVNEQNIEYKGVRTSNMLRRK
modifications: left off: large carriers
[7]
  Light activated transcriptional response (dimerization-dependent transcription factor): light activated transcriptional responses

B4: CrPH-LOV1: LOV domain of C. reinhardtii phototropin, residue 16 to 133 of A8IXU7, SEQ ID NO: 6 (protein, listed as Chlamydomonas reinhardtii)
chain: AGLRHTFVVADATLPDCPLVYASEGFYAMTGYGPDEVLGHNCRFLQGEGTDPKEVQKIRDAIKKGEACSVRLLNYRKDGTPFWNLLTVTPIKTPDGRVSKFVGVQVDVTSKTEGKALA
[5]
  Estimated excited state lifetime: ~200^1 s
[6]; [8]
  Kd: < 55 µM
[6]; [9]
  Kd: < 55 µM
